Source: patent US20200108008A1, “OLAPARIB ORAL SUSTAINED AND CONTROLLED RELEASE PHARMACEUTICAL COMPOSITION AND USES THEREOF” (SHANGHAI INSTITUTE OF MATERIA MEDICA, CHINESE ACADEMY OF …, priority 2016, published 2020)

Experiment: Dissolution of olaparib solid dispersion versus olaparib compound powder in water under sink conditions
Format: physicochemical
Settings: 37° C., 100 rpm
Method: A solid dispersion was prepared from Olaparib and copolyvidone VA64 by solvent evaporation. That is, olaparib and copolyvidone VA64 were simultaneously dissolved in ethanol/acetone (25/75, v/v), evaporated off the organic solvent under reduced pressure, dried in a vacuum drying oven, and ground and pulverized through a 60 mesh screen to be ready for tableting. For the obtained solid dispersion, in water under sink conditions at 37° C. and 100 rpm, the pharmaceutically active ingredient was dissolved out 90% or more in 30 min. However, under the same conditions, the olaparib compound powder was dissolved out less than 60% in 2h.

dissolved out in 2h: less than 60%
SMILES: O=C(c1cc(Cc2n[nH]c(=O)c3ccccc23)ccc1F)N1CCN(C(=O)C2CC2)CC1 [olaparib compound powder, 1-(cyclopropylcarboxyl)-4-[5-[(3,4-dihydro-4-oxo-1-phthalazinyl)methyl]-2-fluorobenzoyl]piperazine]
